Laboratory results taken from patent US11286268B1, “EIF4E-inhibiting compounds and methods” (EFFECTOR THERAPEUTICS, INC., priority 2019, dated 2022).
Read-outs that look alike come from different tables or passages of the source.

Target: recombinant eIF4E (Homo sapiens (Human), UniProt P06730)
Assay: Fluorescence polarization competition assay for eIF4E binding potency
Summary of the method: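 Competition of test compound against 20 nM EDA-m^7GDP-ATTO-550 for 75 nM recombinant eIF4E, pre-incubated 5 min, in 20 mM Tris pH 7.5, 100 mM NaCl, 1 mM DTT, 0.02% Tween-20, 1% DMSO. Equilibrated 30 min at room temperature, dark; fluorescence polarization read. IC50 from 8-point, 3-fold dilution series.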

[1] = fluorescence polarization competition, 75 nM recombinant eIF4E, 20 nM EDA-m7GDP-ATTO-550, IC50 class, read-out: elF4E FP
[2] = inhibition of eIF4E/EDA-m7GDP-ATTO-550 binding, calculated IC50 values, Table 4B, read-out: IC50
[3] = inhibition of eIF4E/EDA-m7GDP-ATTO-550 binding by 50%, Table 4B calculated values, read-out: IC50

recombinant eIF4E, sequence (P06730 whole entry): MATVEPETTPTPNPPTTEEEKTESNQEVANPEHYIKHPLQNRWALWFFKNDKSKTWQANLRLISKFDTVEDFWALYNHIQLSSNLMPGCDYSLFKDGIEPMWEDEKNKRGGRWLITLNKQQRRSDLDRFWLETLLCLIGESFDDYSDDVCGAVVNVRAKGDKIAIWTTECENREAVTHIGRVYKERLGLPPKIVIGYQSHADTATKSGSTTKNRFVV

| Compound | IC50 [1] | IC50 [2] | IC50 [3] |
| --- | --- | --- | --- |
| Cc1nc2cc(C(F)(F)F)c(N3CCN(C)CC3)c(C#N)c2c(=O)n1CCOc1ccc(Cl)cc1-c1ccnc2c(Cl)csc12 [compound 1247] | < 50 nM | 35.5 nM |  |
| O=C(O)c1cccc(-c2cc(Cl)ccc2OCCn2c(C(F)F)nc3cnc(Cl)cc3c2=O)c1 [compound 2008] |  | 96.1 nM |  |
| Cc1cc(-c2cc(Cl)ccc2OCCn2c(C)nc3cnc(-c4ccc(F)cc4)c(C#N)c3c2=O)c2scc(C(=O)O)c2n1 [compound 943] | < 50 nM |  | 14.7 nM |
| Cc1nc2cc(C(F)(F)F)c(CN3CCOCC3)c(C#N)c2c(=O)n1CCOc1ccc(Cl)cc1-c1ccnc2c(C(=O)O)csc12 [compound 501] | < 50 nM |  | 25.7 nM |
| Cc1cc(-c2cc(Cl)ccc2OCCn2c(C)nc3cc(C(F)(F)F)c(N4CC(=O)C4)nc3c2=O)c2scc(C(=O)O)c2n1 [compound 796] | < 50 nM |  | 3.27 nM |
| N#Cc1cccc2nc(C(F)F)n(CCOc3ccc(Cl)cc3-c3cncn(CC(=O)O)c3=S)c(=O)c12 [compound 192] | > 1000 nM |  | 1310 nM |
| Cc1nc2cc(C(F)(F)F)cc(C#N)c2c(=O)n1C/C=C/c1ccc(Cl)cc1-c1cccc(C(=O)O)c1 [compound 145] | 50 to 1000 nM |  | 95.9 nM |
| Cc1sc2c(-c3cc(Cl)ccc3OCCn3c(C)nc4cc(C(F)(F)F)c(C)c(C#N)c4c3=O)cn(C)c(=O)c2c1C(=O)O [compound 899] | < 50 nM |  | 7.44 nM |
| Cc1cc(-c2cc(Cl)ccc2OCCn2c(C)nc3cc(CCN(C)C)c(OC(F)F)c(C#N)c3c2=O)c2scc(C(=O)O)c2n1 [compound 607] | < 50 nM |  | 5.5 nM |
| Cc1nc2cnc(N(C)C3(C)CCN(CC(F)F)CC3)c(C#N)c2c(=O)n1CC#Cc1ccc(Cl)cc1-c1ccnc2c(C(=O)O)csc12 [compound 1413] |  | 51.7 nM |  |
| Cc1cc(-c2cc(Cl)ccc2OCCn2c(C)nc3cc(C(F)(F)F)c(N4CCN(CCF)CC4)c(C#N)c3c2=O)c2scc(C(=O)O)c2n1 [compound 430] | < 50 nM |  | 9 nM |
| Cc1cc(-c2cc(Cl)ccc2OCCn2c(C)nc3c(C4CC4)ncc(C#N)c3c2=O)c2scc(C(=O)O)c2n1 [compound 339] | < 50 nM |  | 26.8 nM |
| Cc1nc2cnc(N(C)C3CCN(CC(F)(F)F)CC3)c(C#N)c2c(=O)n1CC#Cc1ccc(Cl)cc1-c1ccnc2c(C(=O)NS(=O)(=O)C(C)C)csc12 [compound 1538] |  | 14.5 nM |  |
| O=C(O)c1cccc(-c2cc(Cl)ccc2OCCn2ccc3ncccc3c2=O)c1 [compound 10] | > 1000 nM |  | 6510 nM |
| Cc1nc2cnc(N3CCN(CCC(F)(F)F)CC3)c(C#N)c2c(=O)n1CC#Cc1ccc(Cl)cc1-c1ccnc2c(C(=O)O)csc12 [compound 1160] | < 50 nM |  | 17.2 nM |
| Cc1nc2cnc(N3CCN(CC(C)(C)F)CC3)c(C#N)c2c(=O)n1CCOc1ccc(Cl)cc1-c1ccnc2c(C(=O)O)csc12 [compound 1317] |  | 33.5 nM |  |
| Cc1nc2cnc(N3CCN(C(C)(C)C(F)F)CC3)c(C#N)c2c(=O)n1CCOc1ccc(Cl)cc1-c1ccnc2c(C(=O)O)csc12 [compound 1309] |  | 37.2 nM |  |
| Cc1nc2c(C#N)ccc(C#N)c2c(=O)n1CCOc1ccc(Cl)cc1-c1ccnc2c(C(=O)O)csc12 [compound 312] | 50 to 1000 nM |  | 75.6 nM |
| Cc1nc2cnc(N(C)C3CC4(C3)CN(CC(F)(F)F)C4)c(C#N)c2c(=O)n1CC#Cc1ccc(Cl)cc1-c1ccnc2c(C(=O)O)csc12 [compound 827] | < 50 nM |  | 5.72 nM |
| Cc1nc2cnc(N(C)C3CCN(C4CC(F)(F)C4)CC3)c(C#N)c2c(=O)n1CC#Cc1ccc(Cl)cc1-c1ccnc2c(C(=O)NS(=O)(=O)C3CCC3)csc12 [compound 1810] |  | 12.9 nM |  |
| Cc1nc2ccc(OC(F)F)c(C#N)c2c(=O)n1CCOc1ccc(Cl)cc1-c1ccnc2c(C(=O)O)csc12 [compound 236] | < 50 nM |  | 20.3 nM |
| Cc1nc2cc(C(F)(F)c3ccncc3)cc(C#N)c2c(=O)n1CCOc1ccc(Cl)cc1-c1ccnc2c(C(=O)O)csc12 [compound 216] | 50 to 1000 nM |  | 62.8 nM |
| Cc1cc(-c2cc(Cl)ccc2C#CCn2c(C)nc3cc(C(F)(F)F)cc(C#N)c3c2=O)c2scc(C(=O)O)c2n1 [compound 560] | < 50 nM |  | 4.77 nM |
| Cc1nc2cnc(N3CCN(C)CC3)c(C#N)c2c(=O)n1CCOc1ccc(Cl)cc1-c1ccnc2c(C(=O)O)csc12 [compound 707] | < 50 nM |  | 17.8 nM |
| Cc1cc(-c2cc(Cl)ccc2OCCn2c(C)nc3c(CN4CCN(C)CC4)c(C(F)(F)F)cc(C#N)c3c2=O)c2scc(C(=O)O)c2n1 [compound 483] | < 50 nM |  | 42.1 nM |
| CCc1cc(-c2cc(Cl)ccc2OCCn2c(C)nc3cnc(C4CC4)c(C#N)c3c2=O)c2scc(C(=O)O)c2n1 [compound 793] | < 50 nM |  | 4.81 nM |

| Compound | IC50 [1] | IC50 [2] | IC50 [3] |
| --- | --- | --- | --- |
| Cc1cccc(-c2c(C(F)(F)F)cc3nc(C)n(CCOc4ccc(Cl)cc4-c4cccc(C(=O)O)c4)c(=O)c3c2C#N)n1 [compound 375] | 50 to 1000 nM |  | 58 nM |
| Cc1cc(-c2cc(Cl)ccc2OCCn2c(C)nc3cc(C(F)(F)F)c(-c4cccnc4)c(C#N)c3c2=O)c2scc(C(=O)O)c2n1 [compound 630] | 50 to 1000 nM |  | 50.2 nM |
| Cc1nc2cnc(N(C)C3CCN(C(C)(C)C(F)(F)F)CC3)c(C#N)c2c(=O)n1CCOc1ccc(Cl)cc1-c1ccnc2c(C(=O)O)csc12 [compound 1514] |  | 51.7 nM |  |
| Cc1nc2c(Cl)ccc(C#N)c2c(=O)n1CCOc1ccc(Cl)cc1-c1ccnc2c(C(=O)O)csc12 [compound 1942] |  | 182 nM |  |
| Cc1ccc(C)c(-c2c(C(F)(F)F)cc3nc(C)n(CCOc4ccc(Cl)cc4-c4cc(C)nc5c(C(=O)O)csc45)c(=O)c3c2C#N)n1 [compound 906] | < 50 nM |  | 17.6 nM |
| Cc1cc(-c2cc(Cl)ccc2OCCn2c(C)nc3cc(C(F)(F)F)c(-c4ccn(C)n4)nc3c2=O)c2scc(C(=O)O)c2n1 [compound 787] | < 50 nM |  | 10.9 nM |
| COc1ncc2nc(C)n(CCOc3ccc(Cl)cc3-c3cc(C)nc4c(C(=O)O)csc34)c(=O)c2c1C#N [compound 897] | < 50 nM |  | 1.4 nM |
| N#Cc1cc2c(=O)n(CCOc3ccc(Cl)cc3-c3cc(C(=O)O)ccc3C3CC3)cnc2cn1 [compound 92] | > 1000 nM |  | > 3000 nM |
| COC1CN(c2c(C(F)(F)F)cc3nc(C)n(CCOc4ccc(Cl)cc4-c4cc(C)nc5c(C(=O)O)csc45)c(=O)c3c2C#N)C1 [compound 1009] | < 50 nM |  | 6.23 nM |
| Cc1cc(-c2cc(Cl)ccc2OCCn2c(C)nc3cc(C(F)(F)F)cc(C#N)c3c2=O)c2scc(C(=O)NS(C)(=O)=O)c2n1 [compound 565] | < 50 nM |  | 29.7 nM |
| Cc1nc2cnc(N3CCN(CC(F)C(F)(F)F)CC3)c(C#N)c2c(=O)n1CCOc1ccc(Cl)cc1-c1ccnc2c(C(=O)O)csc12 (centres unmarked) [compound 1358] |  | 18.3 nM |  |
| Cc1nc2cnc(N(C)C3CCN(CC(F)F)CC3)c(C#N)c2c(=O)n1CCOc1ccc(Cl)cc1-c1ccnc2c(P(=O)(O)O)csc12 [compound 1617] |  | 15.6 nM |  |
| CCOP(=O)(OCC)c1csc2c(-c3cc(Cl)ccc3OCCn3c(C)nc4cc(C(F)(F)F)c(N5CCN(C)CC5)c(C#N)c4c3=O)ccnc12 [compound 1612] |  | 13.7 nM |  |
| CCc1cc(-c2cc(Cl)ccc2OCCn2c(C)nc3cc(C(F)(F)F)c(N4CCN(C)CC4)cc3c2=O)c2scc(C(=O)O)c2n1 [compound 1083] | < 50 nM |  | 44 nM |
| Cc1cc(-c2cc(Cl)ccc2OCCn2c(C)nc3cc(Cl)c(N4CC(C)(C)C4)c(C#N)c3c2=O)c2scc(C(=O)O)c2n1 [compound 691] | < 50 nM |  | 7.17 nM |
| Cc1ccc(Nc2c(Cl)cc3nc(C)n(CCOc4ccc(Cl)cc4-c4cc(C)nc5c(C(=O)O)csc45)c(=O)c3c2C#N)cn1 [compound 960] | < 50 nM |  | 39.6 nM |
| Cc1cc(-c2cc(Cl)ccc2OCCn2c(C)nc3cc(C(F)(F)F)c(-c4ccnc(C)c4F)c(C#N)c3c2=O)c2scc(C(=O)O)c2n1 [compound 472] | < 50 nM |  | 23.6 nM |
| Cc1cc(-c2cc(Cl)ccc2OCCn2c(C)nc3cc(C(F)(F)F)c(N4CC(O)C4)nc3c2=O)c2scc(C(=O)O)c2n1 [compound 797] | < 50 nM |  | 6.79 nM |
| Cc1c([N+](=O)O)c2cc(C(F)(F)F)cc(C#N)c2c(=O)n1CCOc1ccc(Cl)cc1-c1ccnc2c(C(=O)O)csc12 [compound 270] | < 50 nM |  |  |
| Cc1nc2cc(C(F)(F)F)c(CN(C)C)c(C#N)c2c(=O)n1CCOc1ccc(Cl)cc1-c1ccnc2c(C(=O)O)csc12 [compound 261] | < 50 nM |  | 42 nM |
| Cc1nc2cc(C(F)(F)F)nc(C#N)c2c(=O)n1CCOc1ccc(Cl)cc1-c1cccc(C(=O)O)c1 [compound 154] | 50 to 1000 nM |  |  |
| Cc1nc2cnc(N(C)C3CCN(CC(F)(F)CO)CC3)c(C#N)c2c(=O)n1CC#Cc1ccc(Cl)cc1-c1ccnc2c(C(=O)O)csc12 [compound 1132] | < 50 nM |  | 13.3 nM |
| Cc1nc2cnc(N(C)C3CCN(C(c4ccn(C)n4)C(F)F)CC3)c(C#N)c2c(=O)n1CC#Cc1ccc(Cl)cc1-c1ccnc2c(C(=O)O)csc12 (centres unmarked) [compound 1537] |  | 18.9 nM |  |
| Cc1cc(-c2cc(Cl)ccc2OCCn2c(C)nc3cc(C(F)(F)F)c(CN4CCSCC4)c(C#N)c3c2=O)c2scc(C(=O)O)c2n1 [compound 1376] |  | 13.6 nM |  |
| CC(=O)c1cnn2c(-c3cc(Cl)ccc3OCCn3c(C)nc4cc(C(F)(F)F)cc(C#N)c4c3=O)cc(C)nc12 [compound 414] | < 50 nM |  | 20.5 nM |
| Cc1cc(-c2cc(Cl)ccc2OCCn2c(C)nc3cc(Cl)c(-c4ncco4)c(C#N)c3c2=O)c2scc(C(=O)O)c2n1 [compound 1006] | < 50 nM |  | 18.2 nM |
